The source of these data is patent US20250368609A1, “TRIAZINANE COMPOUND AND COMPOSITION CONTAINING SAME” (SUMITOMO CHEMICAL COMPANY, LIMITED, priority 2022, published 2025).

The test system of data set [1] is waterhemp (Amaranthus tuberculatus=A. rudis). In words: Test method 3: upland field, post-emergence foliar application test, herbicidal efficacy against waterhemp. In kind it is in vivo. The settings on record: scale 0 to 10.
For another data set, the system named is velvetleaf. In words: Test method 3: upland field, post-emergence foliar application test, herbicidal efficacy against velvetleaf. The note with it: scale 0 to 10. Also noted: key: if there is no or almost no difference in the state of emergence or growth of test weeds at the time of investigation as compared with that of test weeds in an untreated control, the evaluation of the herbicidal efficacy is classified as “0”; if the test weeds are completely withered or emergence or growth of the test weeds is suppressed, the evaluation of the herbicidal efficacy is classified as “10”. In kind it is in vivo, Abutilon theophrasti.

Data set [2] concerns velvetleaf (Abutilon theophrasti). In words: Test method 1: upland field, post-emergence foliar application test (velvetleaf). In kind it is in vivo. Details: key: if there is no or almost no difference in the state of emergence or growth of test weeds at the time of investigation as compared with that of test weeds in an untreated control, the evaluation of the herbicidal efficacy is classified as “0”; if the test weeds are completely withered or emergence or growth of the test weeds is suppressed, the evaluation of the herbicidal efficacy is classified as “10”. The note with it: scale 0 to 10. An excerpt: Next, the herbicidal efficacy of the compound of the present invention is shown by test examples. In the following test examples, the evaluation of the herbicidal efficacy is classified into 0 to 10, where if there is no or almost no difference in the state of emergence or growth of test weeds at the time of investigation as compared with that of test weeds in an untreated control, the evaluation of the herbicidal efficacy is classified as “0”, and if the test weeds are completely withered or emergence or growth of the test weeds is suppressed, the evaluation of the herbicidal efficacy is classified as “10”. A pot is filled with a commercially available culture soil, and seeds of velvetleaf (Abutilon theophrasti) are sown in the pot. Thereafter, the seeds are covered with approximately 0.5 cm of soil, and each of the seeds is cultivated in a greenhouse for 13 days. Next, a predetermined amount of the test compound is dissolved in 1 mL of a DMF solution containing 2% of an adjuvant, and 18 mL of water is added thereto, thereby preparing a diluent. The diluent is uniformly sprayed over plants so as to give the plants a predetermined treatment amount. Thereafter, the plants are cultivated in the greenhouse for 20 days, and herbicidal efficacy is evaluated.

A further data set has as its system corn (Zea mays). The note with it: in vivo, 7 days.

With `C=CCOC(=O)C1(Oc2cc(-n3c(=O)cc(C(F)(F)F)n(C)c3=O)c(F)cc2Cl)CC1` [Compound B-1], the “Herbicidal efficacy Waterhemp 1 WAT” value in data set [1] (dosage 16 gAI/ha) and in data set [1] (dosage 32 gAI/ha) was 9 in each case. Further, the “Herbicidal efficacy Velvetleaf 1 WAT” value in the data set on velvetleaf (dosage 16 gAI/ha) and with velvetleaf (dosage 32 gAI/ha) was 10 in each case.

Regarding `CCOC(=O)COC(=O)C1(Oc2cc(-n3c(=O)cc(C(F)(F)F)n(C)c3=O)c(F)cc2Cl)CC1` [Compound B-2], the “Herbicidal efficacy Waterhemp 1 WAT” value in data set [1] (dosage 8 gAI/ha) and in data set [1] (dosage 16 gAI/ha) was 9 throughout. Besides, the “Herbicidal efficacy Velvetleaf 1 WAT” value in the data set with velvetleaf (dosage 8 gAI/ha) and with velvetleaf (dosage 16 gAI/ha) was 10 throughout.

`Cn1c(=S)n(C)c(=O)n(-c2cc(OC3CCCC3)c(Cl)cc2F)c1=O` [Compound C-1]: the “Herbicidal efficacy Velvetleaf 3 WAT” value in data set [2] (dosage 1 gAI/ha) and in data set [2] (dosage 2 gAI/ha) was 1 throughout.

On to `C=CCOC(=O)C(C)Oc1cc(-n2c(=O)n(C)c(=S)n(C)c2=O)c(F)cc1Cl` (stereo not shown) [Compound C-2], for which the “Herbicidal efficacy Velvetleaf 3 WAT” value in data set [2] (dosage 1 gAI/ha) and in data set [2] (dosage 2 gAI/ha) was 1 throughout.

Regarding `CCOCCOC(=O)C(C)Oc1cc(-n2c(=O)n(C)c(=S)n(C)c2=O)c(F)cc1Cl` (stereo not shown) [Compound C-3], the “Herbicidal efficacy Velvetleaf 3 WAT” value in data set [2] (dosage 1 gAI/ha) and in data set [2] (dosage 2 gAI/ha) was 1 in each case.

Turning to `C=CCOC(=O)C1(Oc2cc(-n3c(=O)n(C)c(=S)n(C)c3=O)c(F)cc2Cl)CC1` [Compound I-5], the “Herbicidal efficacy Waterhemp 1 WAT” value in data set [1] (dosage 16 gAI/ha) and in data set [1] (dosage 32 gAI/ha) was 9 in each case. Moreover, in the data set with corn (Zea mays), the “Phytotoxicity Corn 1 WAT” value is recorded as 1. In addition, the “Herbicidal efficacy Velvetleaf 1 WAT” value in the data set on velvetleaf (dosage 16 gAI/ha) and with velvetleaf (dosage 32 gAI/ha) was 10 each time. Moreover, the “Herbicidal efficacy Velvetleaf 3 WAT” value in data set [2] (dosage 1 gAI/ha) and in data set [2] (dosage 2 gAI/ha) was 10 throughout.

On to `CCOC(=O)COC(=O)C1(Oc2cc(-n3c(=O)n(C)c(=S)n(C)c3=O)c(F)cc2Cl)CC1` [Compound I-14], for which the “Herbicidal efficacy Waterhemp 1 WAT” value in data set [1] (dosage 8 gAI/ha) and in data set [1] (dosage 16 gAI/ha) was 9 each time. Also, the “Phytotoxicity Corn 1 WAT” value in the data set on corn (Zea mays) came out at 1. Further, the “Herbicidal efficacy Velvetleaf 1 WAT” value with velvetleaf (dosage 8 gAI/ha) and with velvetleaf (dosage 16 gAI/ha) was 10 each time. Also, the “Herbicidal efficacy Velvetleaf 3 WAT” value in data set [2] (dosage 1 gAI/ha) and in data set [2] (dosage 2 gAI/ha) was 10 each time.
